Source: PubChem BioAssay AID1963985 (Molecular Pharmacology Branch, DTP, NCI, 2024)
Each block holds one compound with its values, some of them ahead of it.

Test system: 252836-082-R-J2-PDC tumor spheroids, viability
Assay: Anticancer human tumor 252836-082-R-J2-PDC patient-derived head and neck squamous cell carcinoma cell line growth inhibition [PI3K]
Details: spheroids with HUVEC and MSC; for IC50: curve of first compound; for viability, T/C: stronger effect = lower value
Summary of the method: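 Targeted small molecules plus PI3K inhibitors, half-log dose series from Cmax (default top 10 microM), were applied to heterotypic spheroids of cancer cells with HUVEC and MSCs. Viability indicated growth inhibition.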

[1] = second compound 0.0316 µM, first compound 0.0316 µM
[2] = second compound 0.0316 µM, first compound 0.1 µM
[3] = second compound 0.1 µM, first compound 0.0316 µM
[4] = second compound 0.1 µM, first compound 0.1 µM
[5] = second compound 0.316 µM, first compound 0.0316 µM
[6] = second compound 0.316 µM, first compound 0.1 µM
[7] = second compound 1 µM, first compound 0.0316 µM
[8] = second compound 1 µM, first compound 0.1 µM
[9] = second compound 3.16 µM, first compound 0.0316 µM
[10] = second compound 3.16 µM, first compound 0.1 µM
[11] = second compound 10 µM, first compound 0.0316 µM
[12] = second compound 10 µM, first compound 0.1 µM
[13] = second compound 0.0316 µM, first compound 0.316 µM
[14] = second compound 0.0316 µM, first compound 1 µM
[15] = second compound 0.0316 µM, first compound 3.16 µM
[16] = second compound 0.0316 µM, first compound 10 µM
[17] = second compound 0.1 µM, first compound 0.316 µM
[18] = second compound 0.1 µM, first compound 1 µM
[19] = second compound 0.1 µM, first compound 3.16 µM
[20] = second compound 0.1 µM, first compound 10 µM
[21] = second compound 0.316 µM, first compound 0.316 µM
[22] = second compound 0.316 µM, first compound 1 µM
[23] = second compound 0.316 µM, first compound 3.16 µM
[24] = second compound 0.316 µM, first compound 10 µM
[25] = second compound 1 µM, first compound 0.316 µM
[26] = second compound 1 µM, first compound 1 µM
[27] = second compound 1 µM, first compound 3.16 µM
[28] = second compound 1 µM, first compound 10 µM
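Also: spheroids exposed to agents for seven days before readout.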
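For viability, T/C in this document: percent of vehicle DMSO control viability so 100% = untreated growth.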

IC50 (second compound 0.0316 µM): > 0.1 µM
IC50 (second compound 0.1 µM): > 0.1 µM
IC50 (second compound 0.316 µM): > 0.1 µM
IC50 (second compound 1 µM): > 0.1 µM
IC50 (second compound 3.16 µM): > 0.1 µM
IC50 (second compound 10 µM): > 0.1 µM
Compound: CC(=O)c1c(C)c2cnc(Nc3ccc(N4CCNCC4)cn3)nc2n(C2CCCC2)c1=O + CC(Nc1ncnc2nc[nH]c12)c1cc2cccc(Cl)c2c(=O)n1-c1ccccc1
viability, T/C (second compound 0.0316 µM, first compound 0.000316 µM): 99.4%
viability, T/C (second compound 0.0316 µM, first compound 0.001 µM): 92.6%
viability, T/C (second compound 0.0316 µM, first compound 0.00316 µM): 93%
viability, T/C (second compound 0.0316 µM, first compound 0.01 µM): 89.1%
viability, T/C [1]: 91.8%
viability, T/C [2]: 93.2%
viability, T/C (second compound 0.1 µM, first compound 0.000316 µM): 105%
viability, T/C (second compound 0.1 µM, first compound 0.001 µM): 89.6%
viability, T/C (second compound 0.1 µM, first compound 0.00316 µM): 76.6%
viability, T/C (second compound 0.1 µM, first compound 0.01 µM): 83.3%
viability, T/C [3]: 83%
viability, T/C [4]: 75.4%
viability, T/C (second compound 0.316 µM, first compound 0.000316 µM): 114%
viability, T/C (second compound 0.316 µM, first compound 0.001 µM): 91.4%
viability, T/C (second compound 0.316 µM, first compound 0.00316 µM): 86.9%
viability, T/C (second compound 0.316 µM, first compound 0.01 µM): 93.7%
viability, T/C [5]: 88.7%
viability, T/C [6]: 96.6%
viability, T/C (second compound 1 µM, first compound 0.000316 µM): 81.9%
viability, T/C (second compound 1 µM, first compound 0.001 µM): 72.4%
viability, T/C (second compound 1 µM, first compound 0.00316 µM): 76.8%
viability, T/C (second compound 1 µM, first compound 0.01 µM): 93.9%
viability, T/C [7]: 79.8%
viability, T/C [8]: 79.2%
viability, T/C (second compound 3.16 µM, first compound 0.000316 µM): 91.6%
viability, T/C (second compound 3.16 µM, first compound 0.001 µM): 87.9%
viability, T/C (second compound 3.16 µM, first compound 0.00316 µM): 66.1%
viability, T/C (second compound 3.16 µM, first compound 0.01 µM): 74.2%
viability, T/C [9]: 73.7%
viability, T/C [10]: 71.6%
viability, T/C (second compound 10 µM, first compound 0.000316 µM): 57.5%
viability, T/C (second compound 10 µM, first compound 0.001 µM): 56.3%
viability, T/C (second compound 10 µM, first compound 0.00316 µM): 69.2%
viability, T/C (second compound 10 µM, first compound 0.01 µM): 61.1%
viability, T/C [11]: 71.4%
viability, T/C [12]: 60.6%

IC50 (second compound 0.00316 µM): > 10 µM
IC50 (second compound 0.01 µM): > 10 µM
IC50 (second compound 0.0316 µM): > 10 µM
IC50 (second compound 0.1 µM): > 10 µM
IC50 (second compound 0.316 µM): > 10 µM
IC50 (second compound 1 µM): < 0.0316 µM
Compound: CNC(=O)c1ccc(N2C(=S)N(c3ccc(C#N)c(C(F)(F)F)c3)C(=O)C2(C)C)cc1F + CC(Nc1ccc2c(c1)OCCn1cc(N3C(=O)OCC3C(F)F)nc1-2)C(N)=O
viability, T/C (second compound 0.00316 µM, first compound 0.0316 µM): 97%
viability, T/C (second compound 0.00316 µM, first compound 0.1 µM): 84.2%
viability, T/C (second compound 0.00316 µM, first compound 0.316 µM): 92.5%
viability, T/C (second compound 0.00316 µM, first compound 1 µM): 91.6%
viability, T/C (second compound 0.00316 µM, first compound 3.16 µM): 102%
viability, T/C (second compound 0.00316 µM, first compound 10 µM): 84.1%
viability, T/C (second compound 0.01 µM, first compound 0.0316 µM): 96.5%
viability, T/C (second compound 0.01 µM, first compound 0.1 µM): 99.9%
viability, T/C (second compound 0.01 µM, first compound 0.316 µM): 82%
viability, T/C (second compound 0.01 µM, first compound 1 µM): 89.1%
viability, T/C (second compound 0.01 µM, first compound 3.16 µM): 103%
viability, T/C (second compound 0.01 µM, first compound 10 µM): 98%
viability, T/C [1]: 90.8%
viability, T/C [2]: 81.7%
viability, T/C [13]: 80.2%
viability, T/C [14]: 77.1%
viability, T/C [15]: 75.1%
viability, T/C [16]: 78.9%
viability, T/C [3]: 68.9%
viability, T/C [4]: 69.5%
viability, T/C [17]: 73.7%
viability, T/C [18]: 66%
viability, T/C [19]: 61.5%
viability, T/C [20]: 67.9%
viability, T/C [5]: 55.4%
viability, T/C [6]: 58.3%
viability, T/C [21]: 53%
viability, T/C [22]: 51.9%
viability, T/C [23]: 61.9%
viability, T/C [24]: 52.3%
viability, T/C [7]: 46.3%
viability, T/C [8]: 44%
viability, T/C [25]: 43.2%
viability, T/C [26]: 50.5%
viability, T/C [27]: 51.4%
viability, T/C [28]: 45.8%

IC50 (second compound 0.0316 µM): > 10 µM
IC50 (second compound 0.1 µM): > 10 µM
IC50 (second compound 0.316 µM): > 10 µM
IC50 (second compound 1 µM): > 10 µM
IC50 (second compound 3.16 µM): > 10 µM
IC50 (second compound 10 µM): > 10 µM
Compound: C=CC(=O)N1CCN(c2nc(=O)n(-c3c(C)ccnc3C(C)C)c3nc(-c4c(O)cccc4F)c(F)cc23)C(C)C1 (stereo unspecified) + CC(Nc1ncnc2nc[nH]c12)c1cc2cccc(Cl)c2c(=O)n1-c1ccccc1
viability, T/C [1]: 94.3%
viability, T/C [2]: 95.8%
viability, T/C [13]: 103%
viability, T/C [14]: 103%
viability, T/C [15]: 105%
viability, T/C [16]: 98%
viability, T/C [3]: 88.5%
viability, T/C [4]: 92.5%
viability, T/C [17]: 96.1%
viability, T/C [18]: 89.8%
viability, T/C [19]: 96.3%
viability, T/C [20]: 100%
viability, T/C [5]: 91%
viability, T/C [6]: 96.6%
viability, T/C [21]: 107%
viability, T/C [22]: 99.7%
viability, T/C [23]: 104%
viability, T/C [24]: 90.5%
viability, T/C [7]: 85.7%
viability, T/C [8]: 90.4%
viability, T/C [25]: 118%
viability, T/C [26]: 102%
viability, T/C [27]: 108%
viability, T/C [28]: 123%
viability, T/C [9]: 74.9%
viability, T/C [10]: 70.3%
viability, T/C (second compound 3.16 µM, first compound 0.316 µM): 74.7%
viability, T/C (second compound 3.16 µM, first compound 1 µM): 86.2%
viability, T/C (second compound 3.16 µM, first compound 3.16 µM): 93.3%
viability, T/C (second compound 3.16 µM, first compound 10 µM): 82.7%
viability, T/C [11]: 72.5%
viability, T/C [12]: 57.5%
viability, T/C (second compound 10 µM, first compound 0.316 µM): 69.4%
viability, T/C (second compound 10 µM, first compound 1 µM): 72.8%
viability, T/C (second compound 10 µM, first compound 3.16 µM): 94.9%
viability, T/C (second compound 10 µM, first compound 10 µM): 74.9%
